How the values were obtained:
Assay type in all cases: in vivo, rat
diabetic rats [1] = assay: Water consumption by diabetic rats during administration of chemicals in drinking water (Example 2); conditions: Table 8
Source text: (§1) Rats were first made diabetic by injection with streptozotocin, and then allowed to stabilize for a period of two weeks. […] After the two week period, the surviving diabetic rats were divided into seven groups and provided either with plain drinking water as a control, or drinking water containing one of six compositions to be tested for their effects on various parameters associated with the diabetic condition. Constituents included in these compositions, in varying combinations, were: zinc (20 mg/L); L-histidine (20 mg/L); arachidonic acid (100 mg/L); testosterone (100 mg/L); and C-Hispro (10 mg/L).
(§2) Diabetic rats receiving one of the six test compositions or control drinking water were monitored for blood glucose concentration, body weight and water consumption over a period of about one month. Values for these parameters were plotted on a graph, and a regression line drawn. […] Thus, if the blood glucose concentration increased substantially steadily over the course of the experiment, the slope of the regression line was reported along with the number of days duration during which the change was monitored.

diabetic rats [2] = assay: Optimizing the level of C-Hispro intake for improving diabetes (blood glucose); conditions: for Mean mg glucose/dL after Tmt / Mean mg glucose/dL before Tmt: 10 mg Zn/L in drinking water; for Changes of mg glucose/dL: 10 mg Zn/L, decrease
Procedure: The results presented in Table 9 were used to determine the optimal concentration of C-Hispro useful for improving the symptoms associated with diabetes. Since rats consuming water containing C-Hispro ad libitum also consumed the lowest water volume as evidenced by the results in Table 8, the optimal concentration of C-Hispro for improving the symptoms of diabetes was determined by providing animals with water containing different concentrations of c-Hispro. The amounts of consumed were determined by measuring the amount of water consumed, dividing this value by the weight of the rat and multiplying the result by the c-Hispro concentration. The amount of C-Hispro intake for the most dramatic improvement of symptoms of diabetes was about 300 μg/kg/day, based on the results presented in Tables 9 and 10. […] Similar ranges of dosages also are expected to be useful for treating diabetic mammals, including humans.

diabetic rats [3] = assay: Blood glucose in diabetic rats administered arachidonic acid and 0.5 mg/kg/day L-histidine (dose optimisation)
Procedure: In the experiment used to produce the results presented in Table 11, the concentration of AA was varied and the L-histidine concentration was held constant. Thus, a range of from 3-30 mg/kg/day of AA provided a therapeutic benefit, with a range of from 10-12 mg/kg/day of AA providing the greatest benefit.

diabetic rats [4] = assay: Blood glucose concentration changes (regression slope) during dietary feeding of defined chemical species (Example 2); conditions: Table 6
Source text: as §1, §2

[5] = C-Hispro intake 217 to 231 μg/kg, restricted water intake
[6] = C-Hispro intake 281 to 290 μg/kg, unrestricted water intake
[7] = C-Hispro intake 303 to 337 μg/kg, restricted water intake
[8] = C-Hispro intake 386 to 466 μg/kg, unrestricted water intake
[9] = C-Hispro intake 448 to 463 μg/kg, restricted water intake
[10] = C-Hispro intake 452 to 554 μg/kg, unrestricted water intake
[11] = C-Hispro intake 554 to 597 μg/kg, restricted water intake
[12] = C-Hispro intake 569 to 680 μg/kg, unrestricted water intake
[13] = arachidonic acid 0 mg/kg/day, 0.5 mg/kg/day L-histidine
[14] = arachidonic acid 2.02 to 2.39 mg/kg/day, plus 0.5 mg/kg/day L-histidine
[15] = arachidonic acid 3.04 to 3.58 mg/kg/day, plus 0.5 mg/kg/day L-histidine
[16] = arachidonic acid 4.05 to 4.78 mg/kg/day, plus 0.5 mg/kg/day L-histidine
[17] = arachidonic acid 5.06 to 5.97 mg/kg/day, plus 0.5 mg/kg/day L-histidine
[18] = arachidonic acid 10.12 to 11.95 mg/kg/day, plus 0.5 mg/kg/day L-histidine
[19] = arachidonic acid 15.18 to 17.91 mg/kg/day, plus 0.5 mg/kg/day L-histidine
[20] = arachidonic acid 20.24 to 23.88 mg/kg/day, plus 0.5 mg/kg/day L-histidine
[21] = arachidonic acid 25.30 to 29.85 mg/kg/day, plus 0.5 mg/kg/day L-histidine

## O=C1N[C@@H](Cc2cnc[nH]2)C(=O)N2CCC[C@@H]12 [C-Hispro, cyclo-Hispro]
Diabetic rats [1]
  water consumption compared to the other groups: lower than in the other groups tested
Diabetic rats [2]; [5]
  Mean mg glucose/dL after Tmt: 213 ± 43 mg glucose/dL
  Mean mg glucose/dL before Tmt: 372 ± 33 mg glucose/dL
  Changes of mg glucose/dL: 159 ± 45 mg glucose/dL
Diabetic rats [2]; [6]
  Mean mg glucose/dL after Tmt: 258 ± 27 mg glucose/dL
  Mean mg glucose/dL before Tmt: 373 ± 30 mg glucose/dL
  Changes of mg glucose/dL: 115 ± 33 mg glucose/dL
Diabetic rats [2]; [7]
  Mean mg glucose/dL after Tmt: 192 ± 28 mg glucose/dL
  Mean mg glucose/dL before Tmt: 422 ± 27 mg glucose/dL
  Changes of mg glucose/dL: 230 ± 14 mg glucose/dL
Diabetic rats [2]; [8]
  Mean mg glucose/dL after Tmt: 353 ± 37 mg glucose/dL
  Mean mg glucose/dL before Tmt: 411 ± 22 mg glucose/dL
  Changes of mg glucose/dL: 58 ± 47 mg glucose/dL
Diabetic rats [2]; [9]
  Mean mg glucose/dL after Tmt: 216 ± 23 mg glucose/dL
  Mean mg glucose/dL before Tmt: 342 ± 20 mg glucose/dL
  Changes of mg glucose/dL: 126 ± 34 mg glucose/dL
Diabetic rats [2]; [10]
  Mean mg glucose/dL after Tmt: 367 ± 47 mg glucose/dL
  Mean mg glucose/dL before Tmt: 417 ± 8 mg glucose/dL
  Changes of mg glucose/dL: 50 ± 41 mg glucose/dL
Diabetic rats [2]; [11]
  Mean mg glucose/dL after Tmt: 221 ± 12 mg glucose/dL
  Mean mg glucose/dL before Tmt: 314 ± 24 mg glucose/dL
  Changes of mg glucose/dL: 93 ± 32 mg glucose/dL
Diabetic rats [2]; [12]
  Mean mg glucose/dL after Tmt: 314 ± 20 mg glucose/dL
  Mean mg glucose/dL before Tmt: 359 ± 46 mg glucose/dL
  Changes of mg glucose/dL: 45 ± 16 mg glucose/dL
Diabetic rats [2]; based on Tables 9 and 10
  amount of C-Hispro intake for the most dramatic improvement of symptoms of diabetes: about 300 μg/kg/day

## N[C@@H](Cc1c[nH]cn1)C(=O)O [L-Histidine, L-histidine]
Diabetic rats [3]; 0.5 mg/kg L-histidine
  effect of L-histidine in the drinking water on diabetes: improved diabetes
Diabetic rats [3]; [13]
  mg glu/dL Post-Treatment: 304 ± 50 mg glu/dL
  mg glu/dL Pre-Treatment: 204 ± 22 mg glu/dL
Diabetic rats [3]; arachidonic acid 0 mg/kg/day, 0.5 mg/kg/day L-histidine, negative = increase
  mg glu/dL improvement: -100 ± 62 mg glu/dL

## CCCCC/C=C\C/C=C\C/C=C\C/C=C\CCCC(=O)O [arachidonic acid]
Diabetic rats [3]; L-histidine held constant
  range of AA providing the greatest benefit: 10 to 12 mg/kg/day
  range of AA that provided a therapeutic benefit: 3 to 30 mg/kg/day
Diabetic rats [3]; L-histidine held constant (0.5 mg/kg/day)
  optimal amount of AA for improving the symptoms of diabetes in rats: about 10 mg/kg/day
Diabetic rats [3]; [14]
  mg glu/dL Post-Treatment: 321 ± 34 mg glu/dL
  mg glu/dL Pre-Treatment: 263 ± 48 mg glu/dL
  mg glu/dL improvement: -58 ± 16 mg glu/dL
Diabetic rats [3]; [15]
  mg glu/dL Post-Treatment: 256 ± 25 mg glu/dL
  mg glu/dL Pre-Treatment: 303 ± 23 mg glu/dL
  mg glu/dL improvement: 47 ± 26 mg glu/dL
Diabetic rats [3]; [16]
  mg glu/dL Post-Treatment: 247 ± 32 mg glu/dL
  mg glu/dL Pre-Treatment: 308 ± 17 mg glu/dL
  mg glu/dL improvement: 61 ± 43 mg glu/dL
Diabetic rats [3]; [17]
  mg glu/dL Post-Treatment: 252 ± 29 mg glu/dL
  mg glu/dL Pre-Treatment: 426 ± 56 mg glu/dL
  mg glu/dL improvement: 174 ± 53 mg glu/dL
Diabetic rats [3]; [18]
  mg glu/dL Post-Treatment: 187 ± 15 mg glu/dL
  mg glu/dL Pre-Treatment: 393 ± 23 mg glu/dL
  mg glu/dL improvement: 206 ± 25 mg glu/dL
Diabetic rats [3]; [19]
  mg glu/dL Post-Treatment: 184 ± 16 mg glu/dL
  mg glu/dL Pre-Treatment: 368 ± 25 mg glu/dL
  mg glu/dL improvement: 184 ± 30 mg glu/dL
Diabetic rats [3]; [20]
  mg glu/dL Post-Treatment: 241 ± 18 mg glu/dL
  mg glu/dL Pre-Treatment: 379 ± 25 mg glu/dL
  mg glu/dL improvement: 138 ± 33 mg glu/dL
Diabetic rats [3]; [21]
  mg glu/dL Post-Treatment: 301 ± 27 mg glu/dL
  mg glu/dL Pre-Treatment: 443 ± 52 mg glu/dL
  mg glu/dL improvement: 142 ± 66 mg glu/dL

## C[C@]12CC[C@H]3[C@@H](CCC4=CC(=O)CC[C@@]43C)[C@@H]1CC[C@@H]2O [testosterone]
Diabetic rats [4]
  benefit of including testosterone in the composition: no apparent benefit
